ChEMBL document CHEMBL1201862, “PubChem BioAssay data set” (2004)
Active and inactive are the calls of the source.

Assays:
[1] = biological target: T1, Neuropeptides B/W receptor type 1 (Homo sapiens, UniProt P48145); assay: Fluorescence-based dose response cell-based high throughput screening assay to identify antagonists of the G-protein coupled receptor 7 (GPR7). [Related pubchem assays: 1952 (Screening assay (GPR7 antagonists).), 1880 (Summary AID.)]; format: functional
T1 sequence (P48145 whole entry): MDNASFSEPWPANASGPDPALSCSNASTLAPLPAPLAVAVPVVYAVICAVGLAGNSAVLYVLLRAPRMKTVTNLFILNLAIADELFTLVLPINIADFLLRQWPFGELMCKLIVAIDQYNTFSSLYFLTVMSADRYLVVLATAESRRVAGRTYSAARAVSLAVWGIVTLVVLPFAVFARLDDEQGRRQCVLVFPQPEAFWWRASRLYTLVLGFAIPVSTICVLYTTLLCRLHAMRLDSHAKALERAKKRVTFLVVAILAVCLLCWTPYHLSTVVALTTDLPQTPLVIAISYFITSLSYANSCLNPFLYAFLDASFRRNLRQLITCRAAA

[2] = biological target: T2, Melanin-concentrating hormone receptor 1 (Homo sapiens, UniProt Q99705); assay: Fluorescence-based counterscreen for antagonists of the G-protein coupled receptor 7 (GPR7): cell-based high throughput dose response assay to identify antagonists of the melanin-concentrating hormone receptor 1 (MCHR1).; format: functional
T2 sequence (Q99705 whole entry): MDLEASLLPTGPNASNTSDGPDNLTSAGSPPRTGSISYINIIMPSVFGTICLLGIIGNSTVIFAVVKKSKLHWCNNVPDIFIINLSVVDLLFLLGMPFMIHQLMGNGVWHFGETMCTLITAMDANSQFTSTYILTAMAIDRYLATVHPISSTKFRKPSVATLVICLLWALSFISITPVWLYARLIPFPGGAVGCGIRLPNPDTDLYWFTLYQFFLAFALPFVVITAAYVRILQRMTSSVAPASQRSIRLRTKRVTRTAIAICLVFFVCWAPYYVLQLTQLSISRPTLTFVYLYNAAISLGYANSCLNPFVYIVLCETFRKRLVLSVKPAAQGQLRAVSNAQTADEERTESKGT

[3] = biological target: T2, Melanin-concentrating hormone receptor 1; assay: Late-stage fluorescence-based counterscreen for antagonists of the G-protein coupled receptor 7 (GPR7): cell-based dose response assay to identify antagonists of the melanin-concentrating hormone receptor 1 (MCHR1). [Related pubchem assays (depositor defined):AID1861, AID1880, AID1952, AID2148, AID2251, AID2257, AID485339]; format: functional
[4] = biological target: T1, Neuropeptides B/W receptor type 1; assay: GPR7 antagonist potency, late-stage follow-up, cell-based, fluorescence, dose response (AID 463251); format: functional
[5] = biological target: T3, Corticotropin-releasing factor receptor 2/Corticotropin-releasing factor-binding protein (Homo sapiens, UniProt P24387+Q13324); assay: activators of CRF receptor 2 with binding protein – uHTS hits, confirmation (AID 602473); format: functional; details: read-out: EC50_Mean
T3 sequence (Q13324 whole entry): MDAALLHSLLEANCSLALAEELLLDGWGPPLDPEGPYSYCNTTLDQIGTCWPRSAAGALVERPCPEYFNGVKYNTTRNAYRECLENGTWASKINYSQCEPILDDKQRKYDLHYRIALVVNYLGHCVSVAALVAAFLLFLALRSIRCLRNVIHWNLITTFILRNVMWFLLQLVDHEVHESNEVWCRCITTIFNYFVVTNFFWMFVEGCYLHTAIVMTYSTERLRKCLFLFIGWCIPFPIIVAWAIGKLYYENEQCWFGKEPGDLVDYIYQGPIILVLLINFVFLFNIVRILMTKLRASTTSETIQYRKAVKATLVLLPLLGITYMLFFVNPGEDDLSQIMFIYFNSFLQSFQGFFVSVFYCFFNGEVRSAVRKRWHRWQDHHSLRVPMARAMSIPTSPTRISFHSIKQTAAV
T3 sequence (P24387 whole entry): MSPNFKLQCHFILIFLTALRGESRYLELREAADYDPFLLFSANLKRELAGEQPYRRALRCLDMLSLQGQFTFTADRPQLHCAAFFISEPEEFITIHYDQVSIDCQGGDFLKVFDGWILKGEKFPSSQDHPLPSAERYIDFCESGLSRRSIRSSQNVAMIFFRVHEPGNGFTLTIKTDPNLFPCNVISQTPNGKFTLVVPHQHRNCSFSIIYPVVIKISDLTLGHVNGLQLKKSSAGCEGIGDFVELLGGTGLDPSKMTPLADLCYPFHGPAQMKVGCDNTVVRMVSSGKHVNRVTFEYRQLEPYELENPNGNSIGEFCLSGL

[6] = biological target: Phosphoethanolamine/phosphocholine phosphatase (Homo sapiens, UniProt Q8TCT1); assay: SAR assay for compounds that inhibit PHOSPHO1. [Related pubchem assays (depositor defined):AID1545, AID1565, AID1574]
Phosphoethanolamine/phosphocholine phosphatase, sequence (Q8TCT1 whole entry): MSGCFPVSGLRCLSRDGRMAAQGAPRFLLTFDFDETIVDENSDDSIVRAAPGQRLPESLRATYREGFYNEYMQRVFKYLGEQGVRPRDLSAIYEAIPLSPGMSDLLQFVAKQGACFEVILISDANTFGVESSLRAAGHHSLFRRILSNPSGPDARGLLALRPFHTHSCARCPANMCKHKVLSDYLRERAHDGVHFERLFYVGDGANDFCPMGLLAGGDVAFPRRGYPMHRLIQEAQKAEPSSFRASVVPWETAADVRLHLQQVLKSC

[7] = cytotoxicity in HEK-293T cells, dose response, cytotoxicity control for TCR NF-kB inhibitor project, luminescence, T-cell screen hits (AID 489026); format: functional, cell-based;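 note: cells exposed to compound about 14 hours before the viability readout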
[8] = Intein inhibitors as potential Tuberculosis drugs, a cytotoxicity screen. [Related pubchem assays (depositor defined):AID2221, AID2223, AID434968, AID435010, AID449749, AID449750, AID489010]; format: functional
[9] = biological target: T4, Replicative DNA helicase DnaB (Mycobacterium tuberculosis, UniProt P9WMR3); assay: DnaB intein splicing inhibitors, dose response, biochemical, cell-free fluorescence (AID 449749); format: functional
T4 sequence (P9WMR3 whole entry): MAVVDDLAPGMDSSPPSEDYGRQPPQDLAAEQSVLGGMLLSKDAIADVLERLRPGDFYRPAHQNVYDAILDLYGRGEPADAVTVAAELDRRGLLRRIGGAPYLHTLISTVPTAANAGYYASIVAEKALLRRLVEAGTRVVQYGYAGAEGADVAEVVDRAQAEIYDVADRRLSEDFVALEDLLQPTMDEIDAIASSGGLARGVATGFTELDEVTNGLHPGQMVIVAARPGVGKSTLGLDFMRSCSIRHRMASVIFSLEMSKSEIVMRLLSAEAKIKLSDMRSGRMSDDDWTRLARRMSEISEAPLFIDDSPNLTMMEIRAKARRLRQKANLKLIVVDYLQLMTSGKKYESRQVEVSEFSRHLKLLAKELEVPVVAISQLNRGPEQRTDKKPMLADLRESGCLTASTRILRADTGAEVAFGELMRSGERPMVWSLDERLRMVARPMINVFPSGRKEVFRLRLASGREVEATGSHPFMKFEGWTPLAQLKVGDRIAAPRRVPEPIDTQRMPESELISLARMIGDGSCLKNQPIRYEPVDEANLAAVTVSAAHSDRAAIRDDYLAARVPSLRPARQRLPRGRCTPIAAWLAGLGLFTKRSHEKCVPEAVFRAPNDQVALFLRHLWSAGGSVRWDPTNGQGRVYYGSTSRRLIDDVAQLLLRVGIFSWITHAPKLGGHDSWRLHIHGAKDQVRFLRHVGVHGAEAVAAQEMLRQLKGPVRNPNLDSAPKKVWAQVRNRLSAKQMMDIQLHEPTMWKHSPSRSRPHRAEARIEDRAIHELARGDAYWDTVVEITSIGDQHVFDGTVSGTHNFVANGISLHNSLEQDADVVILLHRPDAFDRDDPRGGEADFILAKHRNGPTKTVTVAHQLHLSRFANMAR

Protein RecA = biological target: T5, Protein RecA (Mycobacterium tuberculosis, UniProt P9WHJ3); assay: Fluorescence Cell-Free Homogeneous Dose Retest to Identify Inhibitors of RecA-Intein Splicing Activity. [Related pubchem assays (depositor defined):AID2097, AID2223, AID489010, AID492950]; format: functional
T5 sequence (P9WHJ3 whole entry): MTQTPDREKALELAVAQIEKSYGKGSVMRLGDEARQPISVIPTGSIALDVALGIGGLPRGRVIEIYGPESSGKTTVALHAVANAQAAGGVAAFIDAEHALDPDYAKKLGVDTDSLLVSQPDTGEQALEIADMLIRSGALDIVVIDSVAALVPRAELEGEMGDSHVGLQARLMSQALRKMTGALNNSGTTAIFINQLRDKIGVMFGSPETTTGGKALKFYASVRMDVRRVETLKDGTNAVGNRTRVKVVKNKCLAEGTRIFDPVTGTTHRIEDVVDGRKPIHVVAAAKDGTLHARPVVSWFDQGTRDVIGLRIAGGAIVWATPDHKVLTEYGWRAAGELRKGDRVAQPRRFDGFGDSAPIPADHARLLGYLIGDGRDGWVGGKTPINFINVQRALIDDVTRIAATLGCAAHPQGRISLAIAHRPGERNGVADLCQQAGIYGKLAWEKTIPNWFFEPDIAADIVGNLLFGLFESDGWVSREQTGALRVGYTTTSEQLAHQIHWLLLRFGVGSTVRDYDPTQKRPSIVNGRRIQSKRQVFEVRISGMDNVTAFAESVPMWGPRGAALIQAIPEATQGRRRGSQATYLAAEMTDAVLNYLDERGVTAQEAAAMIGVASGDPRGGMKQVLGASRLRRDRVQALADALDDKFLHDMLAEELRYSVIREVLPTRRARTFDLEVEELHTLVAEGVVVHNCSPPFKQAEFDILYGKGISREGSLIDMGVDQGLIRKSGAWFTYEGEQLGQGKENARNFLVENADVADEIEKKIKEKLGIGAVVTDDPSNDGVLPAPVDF
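Throughout, for CC50: cells exposed to compound for 72 hours before luminescence readout.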

Q: What does the source list for `COc1ccccc1-n1c(SCC(N)=O)nnc1-c1ccc(S(=O)(=O)N2CCCCC2)cc1`?
A: IC50 [1]: 5.36 µM (active); IC50 [2]: > 43.8 µM (not active); IC50 [3]: > 20 µM (inactive); IC50 [4]: > 20 µM (inactive); EC50 [5]: 12.7 µM (active)

Q: With `COc1ccc(-c2nc(N)s[n+]2-c2ccccc2)cc1` as the molecule, how does the IC50 [6] read?
A: The IC50 was 1.25 µM (inactive).

Q: For `CC(C)(C)c1csc(Sc2ccc([N+](=O)[O-])cn2)n1`, which IC50 [7] is on record?
A: The IC50 was > 80 µM (inactive).

Q: What about the CC50 [8] of the same molecule?
A: Its CC50 is > 40 µM (active).

Q: What about the AC50 [9] of the same molecule?
A: The AC50 was 2.54 µM (active).

Q: What about the EC50 (Protein RecA) of the same molecule?
A: Its EC50 is 1.75 µM (active).
